Test results: the supplement of paper PMC10307832

How the values were obtained:
Assay in all cases: relative viability (nuclei count vs DMSO), 5 days (fraction); higher = more cells survive
Alisertib = compound: COc1cc(Nc2ncc3c(n2)-c2ccc(Cl)cc2C(c2c(F)cccc2OC)=NC3)ccc1C(=O)O [Alisertib]
In short: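 Acceptance criteria were a control CV below 25% and at least one doubling per plate. Lung cancer cell lines in 1536-well plates got five library-drug doses (not always all listed) √10 apart by pinning and were left 5 days with no medium change. Viability divides treated-well nuclei by vehicle-well nuclei and is the median across plates. Nuclei were counted by MetaXpress from 4× Hoechst images.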

Alisertib + Tozasertib = compound: COc1cc(Nc2ncc3c(n2)-c2ccc(Cl)cc2C(c2c(F)cccc2OC)=NC3)ccc1C(=O)O [Alisertib] + Cc1cc(Nc2cc(N3CCN(C)CC3)nc(Sc3ccc(NC(=O)C4CC4)cc3)n2)n[nH]1 [Tozasertib] (partner 0.1 µM)
In short: (§1)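 The day after seeding in 1536-well plates, lung cancer cell lines were treated by pin tool with a single drug, or with a fixed anchor-drug dose together with five library-drug doses (not always all listed) in √10 steps. After 5 days, a combined fix-and-stain solution (final 0.05% Triton X-100, 1% formaldehyde, 1 ug/ml Hoechst) was added. Nuclei counted on 4× images gave relative viability as treated counts over vehicle counts, reported as the median of duplicate plates.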

Alisertib + Trametinib = compound: COc1cc(Nc2ncc3c(n2)-c2ccc(Cl)cc2C(c2c(F)cccc2OC)=NC3)ccc1C(=O)O [Alisertib] + CC(=O)Nc1cccc(-n2c(=O)n(C3CC3)c(=O)c3c(Nc4ccc(I)cc4F)n(C)c(=O)c(C)c32)c1 [Trametinib] (partner 0.02 µM)
In short: as §1

Alisertib + AZD7762 = compound: COc1cc(Nc2ncc3c(n2)-c2ccc(Cl)cc2C(c2c(F)cccc2OC)=NC3)ccc1C(=O)O [Alisertib] + NC(=O)Nc1cc(-c2cccc(F)c2)sc1C(=O)N[C@H]1CCCNC1 [AZD7762] (partner 0.2 µM)
In short: as §1

| Cell Line | relative viability (Alisertib; 0.005 µM) | relative viability (Alisertib; 0.01581 µM) | relative viability (Alisertib; 0.05 µM) | relative viability (Alisertib; 0.1581 µM) | relative viability (Alisertib; 0.5 µM) | relative viability (Alisertib + Tozasertib; first compound 0.005 µM) | relative viability (Alisertib + Tozasertib; first compound 0.01581 µM) | relative viability (Alisertib + Tozasertib; first compound 0.05 µM) | relative viability (Alisertib + Tozasertib; first compound 0.1581 µM) | relative viability (Alisertib + Tozasertib; first compound 0.5 µM) | relative viability (Alisertib + Trametinib; first compound 0.005 µM) | relative viability (Alisertib + Trametinib; first compound 0.01581 µM) | relative viability (Alisertib + Trametinib; first compound 0.05 µM) | relative viability (Alisertib + Trametinib; first compound 0.1581 µM) | relative viability (Alisertib + Trametinib; first compound 0.5 µM) | relative viability (Alisertib + AZD7762; first compound 0.005 µM) | relative viability (Alisertib + AZD7762; first compound 0.01581 µM) | relative viability (Alisertib + AZD7762; first compound 0.05 µM) | relative viability (Alisertib + AZD7762; first compound 0.1581 µM) | relative viability (Alisertib + AZD7762; first compound 0.5 µM) |
| --- | --- | --- | --- | --- | --- | --- | --- | --- | --- | --- | --- | --- | --- | --- | --- | --- | --- | --- | --- | --- |
| NCI-H1755 | 0.939 | 0.963 | 0.805 | 0.386 | 0.36 | 0.6 | 0.569 | 0.422 | 0.386 | 0.311 | 0.742 | 0.712 | 0.474 | 0.426 | 0.305 | 0.478 | 0.427 | 0.332 | 0.328 | 0.259 |
| NCI-H2087 | 0.941 | 0.807 | 0.312 | 0.176 | 0.201 | 0.204 | 0.249 | 0.126 | 0.158 | 0.144 | 0.243 | 0.221 | 0.149 | 0.134 | 0.0971 | 1.17 | 1.29 | 0.293 | 0.214 | 0.185 |
| NCI-H2228 | 0.778 | 0.85 | 0.531 | 0.158 | 0.189 | 0.322 | 0.19 | 0.147 | 0.132 | 0.109 | 0.565 | 0.24 | 0.237 | 0.121 | 0.113 |  |  |  |  |  |
| NCI-H838 | 0.833 | 0.831 | 0.617 | 0.313 | 0.191 | 0.272 | 0.262 | 0.231 | 0.195 | 0.201 | 0.432 | 0.49 | 0.269 | 0.146 | 0.129 | 0.943 | 0.852 | 0.715 | 0.669 | 0.626 |
| NCI-H661 | 1.01 | 0.965 | 0.663 | 0.415 | 0.374 | 0.342 | 0.377 | 0.386 | 0.406 | 0.39 | 0.514 | 0.547 | 0.442 | 0.341 | 0.338 |  |  |  |  |  |
| NCI-H520 | 0.843 | 0.722 | 0.462 | 0.451 | 0.317 | 0.372 | 0.418 | 0.376 | 0.409 | 0.357 | 0.499 | 0.429 | 0.35 | 0.232 | 0.213 |  |  |  |  |  |
| EBC-1 | 0.875 | 0.806 | 0.373 | 0.183 | 0.162 |  |  |  |  |  |  |  |  |  |  |  |  |  |  |  |
| NCI-H727 | 0.817 | 0.929 | 0.542 | 0.384 | 0.401 | 0.411 | 0.598 | 0.486 | 0.494 | 0.404 | 0.308 | 0.392 | 0.355 | 0.341 | 0.353 | 0.618 | 0.586 | 0.591 | 0.398 | 0.326 |
| NCI-H1299 | 0.992 | 0.963 | 0.585 | 0.415 | 0.233 |  |  |  |  |  |  |  |  |  |  |  |  |  |  |  |
| SW 1573 | 0.919 | 0.644 | 0.372 | 0.213 | 0.147 | 0.135 | 0.153 | 0.132 | 0.147 | 0.158 | 0.512 | 0.533 | 0.121 | 0.119 | 0.104 |  |  |  |  |  |
| COR-L23 | 1.02 | 0.846 | 0.484 | 0.203 | 0.123 | 0.439 | 0.213 | 0.119 | 0.124 | 0.114 | 0.609 | 0.427 | 0.221 | 0.133 | 0.125 |  |  |  |  |  |
| NCI-H1650 | 0.846 | 0.736 | 0.289 | 0.192 | 0.224 | 0.46 | 0.394 | 0.2 | 0.246 | 0.202 | 0.558 | 0.565 | 0.295 | 0.145 | 0.191 |  |  |  |  |  |
| SK-LU-1 | 0.856 | 0.802 | 0.447 | 0.333 | 0.232 | 0.303 | 0.286 | 0.219 | 0.224 | 0.205 | 0.484 | 0.457 | 0.203 | 0.275 | 0.279 |  |  |  |  |  |
| IA-LM | 0.795 | 0.823 | 0.569 | 0.357 | 0.0972 |  |  |  |  |  |  |  |  |  |  |  |  |  |  |  |
| NCI-H2009 | 0.926 | 0.97 | 0.513 | 0.303 | 0.254 | 0.732 | 0.663 | 0.427 | 0.336 | 0.22 | 0.272 | 0.28 | 0.287 | 0.136 | 0.138 |  |  |  |  |  |
| NCI-H1563 | 0.999 | 0.943 | 0.871 | 0.903 | 0.647 |  |  |  |  |  |  |  |  |  |  |  |  |  |  |  |
| SK-MES-1 | 0.913 | 0.947 | 0.561 | 0.326 | 0.16 | 0.819 | 0.705 | 0.429 | 0.207 | 0.135 | 0.525 | 0.556 | 0.603 | 0.468 | 0.183 |  |  |  |  |  |
| ABC-1 | 0.794 | 0.845 | 0.787 | 0.286 | 0.293 | 0.178 | 0.233 | 0.256 | 0.203 | 0.196 |  |  |  |  |  |  | 0.594 | 0.648 | 0.307 | 0.272 |
| UMC-11 | 0.437 | 0.3 | 0.211 | 0.176 | 0.186 | 0.201 | 0.23 | 0.201 | 0.213 | 0.219 | 0.344 | 0.246 | 0.15 | 0.148 | 0.185 |  |  |  |  |  |
| NCI-H1792 | 0.81 | 0.68 | 0.538 | 0.232 | 0.109 |  |  |  |  |  | 0.413 | 0.43 | 0.291 | 0.0949 | 0.072 | 0.571 | 0.343 | 0.135 | 0.0427 | 0.0721 |
| NCI-H2023 | 0.838 | 0.727 | 0.566 | 0.227 | 0.109 | 0.419 | 0.368 | 0.263 | 0.215 | 0.0951 | 0.623 | 0.435 | 0.289 | 0.123 | 0.124 |  |  |  |  |  |
| COR-L 105 | 0.863 | 0.952 | 0.765 | 0.305 | 0.303 | 0.31 | 0.346 | 0.299 | 0.352 | 0.276 | 0.4 | 0.407 | 0.369 | 0.325 | 0.281 |  |  |  |  |  |
